pKi: −log10 of the molar value.
Columns and labels:
[1] = system: GR46611-induced hypothermia (prototype agonist 5HT1B) in the guinea-pig; experiment: Hypothermia test in the guinea-pig; format: in vivo; settings: for ΔT° C. (at 90 minutes): mean ± s.e.m., N ≥ 6
From the text: Using the hypothermia test on the guinea-pig (M. Stingle et al., J. of Pychopharmacology, 1994. 8, 14) it was possible to determine the agonist or antagonist nature of the products of the invention.
Hypothermia Test in the Guinea-Pig
The guinea-pigs are kept in batteries of three, with free access to food and water, for one week before entering the study. One hour before each experiment, the guinea-pigs are placed in individual cages with free access to water. They are put back in their respective batteries at the end of each experiment. The temperature measurements are carried out using a digital thermometer and a rectal probe. Each guinea-pig is weighed, its base body temperature is taken and then the compound of the present invention to be evaluated is injected i.p. or p.o. In the case of an agonist, the body temperature of each guinea-pig is taken every 30 minutes for 2 hours.
In the case of an antagonist, 15 minutes after its injection each guinea-pig is injected again i.p. with the prototype agonist 5HT1B : GR46611 (5 mg/kg). The temperature is then taken every 30 minutes for 2 hours.
The criterion used for evaluation is the difference in temperature at a given time in relation to the base temperature. For each dose of product and for each time (t30, t60, t90, t120) the mean and the standard error of the mean are calculated.

[2] = system: extracellular concentration of serotonin in frontal cortex; experiment: Microdialysis experiment in rats (frontal cortex, extracellular serotonin); format: in vivo; settings: rat frontal cortex, M ± s.e.m.
From the text: Carried out in the frontal cortex, these tests make it possible, in the case where the products cause an increase in the release of serotonin, to envisage their use for depression, impulsive disorders and obesity. If they cause a decrease in the release of serotonin they will be beneficial in the treatment of anxiety, panic attacks, sleep problems, cognitive problems and drug abuse problems. Finally, if they produce an increase in dopamine and/or noradrenalin, they will be beneficial in the treatment of schizophrenia and, as above, in the treatment of depression and cognitive problems.
Microdialysis Experiment in Rats
The rats are anaesthetised with pentobarbital (60 mg/kg i.p.). They are placed in a Kopf stereotaxic apparatus and the cannula guide is implanted in the frontal cortex cingulum in accordance with the coordinates described as follows in the Paxinos and Watson atlas (1982): AP:+2.2, L:±0.6, DV:-0.2. The rats are placed in separate cages and are not used in dialysis until 5 days later. On the day of dialysis, the probe is slowly inserted and maintained in its position. […] Simultaneous quantification of dopamine, norepinephrine and serotonin is carried out as follows: 20 μl of dialysis samples are diluted with 20 μl of mobile phase (NaH2 PO4 : 75 mM, EDTA: 20 μM, sodium 1-decanesulphonate: 1 mM, methanol: 17.5%, triethylamine: 0.01%, pH: 5.70) and 33 μl are analysed by HPLC with an inverse phase column (Hypersil ODS 5 μm, C18, 150×4.6 mm, Thermo Separation Products, Les Ulis, France) thermostatically controlled at 45° C. and quantified by way of a coulometric detector. […]
M±s.e.m.=mean of the effect all times merged after administration of the products±standard error of the mean, and n=number of animals. The quantities of the neurotransmitters are expressed as a function of the mean of the three base values before administration of the products and are defined as 0%. […] The reversion of the decrease of the extracellular concentration of serotonin produced by GR 46611 is evaluated statistically by an analysis of variance with drugs as between factor, F (1,25)=26.5, P<0.01.

[3] = biological target: T1, 5HT1B receptor (Cavia porcellus, UniProt O08892); experiment: 5-HT1B binding ([3H]-GR 125743, guinea-pig striatal membranes); settings: [3H]-GR 125743 1 nM, guinea-pig striata membranes; pKi = -log Ki
T1 construct: After the dissection of guinea-pig brains, the extracted striata are frozen; from tissue; host or cells: guinea-pig striatum membranes
Description: a) Preparation of the Membranes
After the dissection of guinea-pig brains, the extracted striata are frozen and then homogenised in 20 volumes (weight/volume) of 50 mM tris-HCl (pH 7.7 at room temperature) containing 4 mM CaCl2 and 0.1% ascorbic acid, and centrifuged at 48,000 g for 25 minutes at 4° C. The supernatant is separated and the precipitate is resuspended in the same volume of buffer before being incubated at 37° C. for 15 minutes in order to extract the endogenous serotonin. Finally, the suspension is centrifuged at 48,000 g for 25 minutes at 4° C. and the precipitate is resuspended in 80 volumes of buffer that contains 10 μM pargyline. […]
The data are analysed by non-linear regression using the PRISM programme (Graphpad Software Inc., San Diego, Calif.) in order to determine the Kd values (dissocation constant of the radioligand), the Bmax values (maximum number of sites) for the saturation experiments and the IC50 values (50% inhibiting concentration) and the Hill number for the competition experiments. The inhibition constant (Ki) is calculated according to the Cheng-Prussof equation: Ki =IC50 /1+L/Kd wherein L represents the concentration of the radioligand. The results are expressed as pKi =-log Ki.

[4] = biological target: T2, 5HT1A receptor (Rattus norvegicus, UniProt P19327); experiment: 5HT1A binding; settings: methods known from the literature; read-out: pKi 5HT1A receptor (converted)
T2 sequence (P19327 1-422): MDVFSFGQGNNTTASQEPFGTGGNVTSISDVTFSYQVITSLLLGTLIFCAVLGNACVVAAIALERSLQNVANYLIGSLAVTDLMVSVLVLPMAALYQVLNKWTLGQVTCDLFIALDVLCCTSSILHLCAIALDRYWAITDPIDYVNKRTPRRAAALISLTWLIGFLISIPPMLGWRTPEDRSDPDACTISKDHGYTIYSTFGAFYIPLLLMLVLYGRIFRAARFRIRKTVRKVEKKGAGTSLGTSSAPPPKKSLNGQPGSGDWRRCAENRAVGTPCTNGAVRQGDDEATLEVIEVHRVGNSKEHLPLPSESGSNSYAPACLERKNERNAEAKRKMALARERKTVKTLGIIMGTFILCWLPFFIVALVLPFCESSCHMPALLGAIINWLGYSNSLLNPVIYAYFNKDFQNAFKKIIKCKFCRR
Description: The 5HT1A receptor binding studies were carried out according to methods known and described in the literature (cf. S. J. Peroutka, J. Neurochem., 1986, 47, 529-40, M. J. Millan, J. Pharmacol. Exp. Ther., 1994, 268, 337-52). The results are also expressed as pKi. The compounds of the present invention have a very low affinity for the 5HT1A receptor.

T1 sequence (O08892 whole entry): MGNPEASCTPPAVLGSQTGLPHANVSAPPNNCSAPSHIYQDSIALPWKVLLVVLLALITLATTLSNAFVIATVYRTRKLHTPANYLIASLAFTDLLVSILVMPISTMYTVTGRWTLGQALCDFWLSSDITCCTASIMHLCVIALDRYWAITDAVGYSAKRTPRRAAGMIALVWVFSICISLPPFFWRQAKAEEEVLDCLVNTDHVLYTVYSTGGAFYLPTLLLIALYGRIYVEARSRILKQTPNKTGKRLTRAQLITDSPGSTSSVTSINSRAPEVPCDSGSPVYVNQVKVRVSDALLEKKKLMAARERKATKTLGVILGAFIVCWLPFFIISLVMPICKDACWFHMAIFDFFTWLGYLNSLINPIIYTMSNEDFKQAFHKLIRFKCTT

SMILES: COc1ccc(CNC(=O)C=Cc2ccc3[nH]cc(CCN(C)C)c3c2)cc1 [GR 46611, reference compound]
- ΔT° C. (at 90 minutes) ([1]; Vehicle i.p. then GR 46611 5 mg/kg i.p.): -1.04 ± 0.15 °C
- extracellular serotonin, mean effect all times merged relative to base values (0%) ([2]; Vehicle + GR 46611 10.0 mg/kg s.c.): -40.7 ± 2.3%

SMILES: c1ccc2c(c1)CC(NC1CCN(c3cccc4c3OCCO4)CC1)C2 [Example 1, 1-(2,3-dihydro[1,4]benzodioxin-5-yl)-4-[N-(indan-2-yl)amino]piperidine]
- ΔT° C. (at 90 minutes) ([1]; Product of Example 1 0.04 mg/kg i.p. then GR 46611 5 mg/kg i.p.): -0.82 ± 0.30 °C
- ΔT° C. (at 90 minutes) ([1]; Product of Example 1 0.16 mg/kg i.p. then GR 46611 5 mg/kg i.p.): -0.75 ± 0.22 °C
- agonist or antagonist nature ([1]; hypothermia test, i.p.): acts as an antagonist
- extracellular serotonin, mean effect all times merged relative to base values (0%) ([2]; Product of Example 1 10.0 mg/kg s.c. + GR 46611 10.0 mg/kg s.c. 20 minutes later): +0.7 ± 3.4%
- extracellular serotonin, mean effect all times merged relative to base values (0%) ([2]; Product of Example 1 10.0 mg/kg s.c. + Vehicle): -9.5 ± 3.7%

SMILES: c1cc2c(c(N3CCC(NC4Cc5cc6c(cc5C4)OCO6)CC3)c1)OCCO2 [Example 3, 1-(2,3-dihydro[1,4]benzodioxin-5-yl)-4-[N-(5,6-methylenedioxyindan-2-yl)amino]-piperidine]
- pKi [3]: 8.50
- Ki [4]: 631 nM
